Drawing on ChEMBL document CHEMBL1201862, “PubChem BioAssay data set” (2004), this text covers IC50, AC50 and EC50 for four compounds.

One experiment deals with T1, Hexokinase-1 (Homo sapiens, UniProt P19367).
T1 sequence (P19367 whole entry): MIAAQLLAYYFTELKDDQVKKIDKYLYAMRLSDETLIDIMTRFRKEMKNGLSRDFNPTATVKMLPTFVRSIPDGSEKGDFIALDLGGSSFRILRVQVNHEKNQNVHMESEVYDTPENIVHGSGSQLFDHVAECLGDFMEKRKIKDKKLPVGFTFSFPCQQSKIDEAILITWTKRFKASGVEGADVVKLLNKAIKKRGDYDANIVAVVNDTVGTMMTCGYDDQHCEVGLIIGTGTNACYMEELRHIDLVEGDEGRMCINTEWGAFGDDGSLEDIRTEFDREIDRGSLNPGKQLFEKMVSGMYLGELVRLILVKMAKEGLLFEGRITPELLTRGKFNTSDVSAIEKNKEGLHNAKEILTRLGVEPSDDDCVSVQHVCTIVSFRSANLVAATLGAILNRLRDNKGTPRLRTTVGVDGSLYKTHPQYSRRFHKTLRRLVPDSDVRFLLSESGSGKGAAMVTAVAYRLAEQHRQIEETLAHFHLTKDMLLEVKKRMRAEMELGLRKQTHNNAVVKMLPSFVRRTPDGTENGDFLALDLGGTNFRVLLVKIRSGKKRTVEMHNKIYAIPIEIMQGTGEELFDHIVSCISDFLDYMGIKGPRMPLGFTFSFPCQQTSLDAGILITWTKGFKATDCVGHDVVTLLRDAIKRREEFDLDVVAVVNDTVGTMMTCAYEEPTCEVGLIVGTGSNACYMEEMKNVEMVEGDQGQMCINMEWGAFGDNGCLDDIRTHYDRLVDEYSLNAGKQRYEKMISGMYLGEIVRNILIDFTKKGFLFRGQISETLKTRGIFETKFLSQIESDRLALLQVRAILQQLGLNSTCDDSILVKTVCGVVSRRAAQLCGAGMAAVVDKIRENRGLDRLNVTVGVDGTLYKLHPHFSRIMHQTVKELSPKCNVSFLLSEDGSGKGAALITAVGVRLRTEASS
The experiment is described as follows: SAR analysis of small molecule inhibitors of hexokinase domain containing I (HKDC1) in the hexokinase 1 selectivity assay. [Related pubchem assays (depositor defined):AID493160, AID493190]. The experiment is classed as functional.

The target in another experiment is T2, Hexokinase HKDC1 (Homo sapiens, UniProt Q2TB90).
T2 sequence (Q2TB90 whole entry): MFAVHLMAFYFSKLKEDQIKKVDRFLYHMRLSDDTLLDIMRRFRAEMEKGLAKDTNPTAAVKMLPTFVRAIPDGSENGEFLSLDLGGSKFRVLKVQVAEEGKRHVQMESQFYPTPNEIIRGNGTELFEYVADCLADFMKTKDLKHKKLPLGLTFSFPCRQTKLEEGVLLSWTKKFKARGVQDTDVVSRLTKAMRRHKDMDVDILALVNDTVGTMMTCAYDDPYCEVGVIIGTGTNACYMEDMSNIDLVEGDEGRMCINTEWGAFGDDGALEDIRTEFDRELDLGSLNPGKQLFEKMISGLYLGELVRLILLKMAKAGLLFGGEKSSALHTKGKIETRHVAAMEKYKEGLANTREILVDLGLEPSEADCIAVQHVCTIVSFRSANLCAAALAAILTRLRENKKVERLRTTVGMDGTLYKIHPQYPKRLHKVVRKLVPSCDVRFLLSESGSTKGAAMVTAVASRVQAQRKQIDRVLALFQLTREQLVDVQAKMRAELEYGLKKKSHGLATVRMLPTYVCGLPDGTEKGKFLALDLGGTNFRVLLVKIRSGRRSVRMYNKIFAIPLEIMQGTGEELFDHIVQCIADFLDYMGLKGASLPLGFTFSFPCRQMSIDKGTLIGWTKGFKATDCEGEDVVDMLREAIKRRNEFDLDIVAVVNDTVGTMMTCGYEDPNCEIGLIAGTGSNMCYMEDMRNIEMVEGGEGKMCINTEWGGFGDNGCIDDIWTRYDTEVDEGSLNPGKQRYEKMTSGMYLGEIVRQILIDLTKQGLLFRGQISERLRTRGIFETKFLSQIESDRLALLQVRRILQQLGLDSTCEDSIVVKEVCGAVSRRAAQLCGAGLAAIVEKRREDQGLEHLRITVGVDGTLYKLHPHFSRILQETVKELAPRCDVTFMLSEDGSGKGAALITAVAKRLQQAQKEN
The experiment is described as follows: SAR analysis of small molecule inhibitors of hexokinase domain containing I (HKDC1). [Related pubchem assays (depositor defined):AID493160, AID493190]. The experiment is classed as functional.

The next experiment deals with DNA topoisomerase (Yersinia pestis, UniProt A0A2S9PM60). The experiment is described as follows: Y. pestis Topo-I inhibitors, cleavage product readout, dose response, biochemical, cherry-pick (AID 588525).
DNA topoisomerase, sequence (A0A2S9PM60 whole entry): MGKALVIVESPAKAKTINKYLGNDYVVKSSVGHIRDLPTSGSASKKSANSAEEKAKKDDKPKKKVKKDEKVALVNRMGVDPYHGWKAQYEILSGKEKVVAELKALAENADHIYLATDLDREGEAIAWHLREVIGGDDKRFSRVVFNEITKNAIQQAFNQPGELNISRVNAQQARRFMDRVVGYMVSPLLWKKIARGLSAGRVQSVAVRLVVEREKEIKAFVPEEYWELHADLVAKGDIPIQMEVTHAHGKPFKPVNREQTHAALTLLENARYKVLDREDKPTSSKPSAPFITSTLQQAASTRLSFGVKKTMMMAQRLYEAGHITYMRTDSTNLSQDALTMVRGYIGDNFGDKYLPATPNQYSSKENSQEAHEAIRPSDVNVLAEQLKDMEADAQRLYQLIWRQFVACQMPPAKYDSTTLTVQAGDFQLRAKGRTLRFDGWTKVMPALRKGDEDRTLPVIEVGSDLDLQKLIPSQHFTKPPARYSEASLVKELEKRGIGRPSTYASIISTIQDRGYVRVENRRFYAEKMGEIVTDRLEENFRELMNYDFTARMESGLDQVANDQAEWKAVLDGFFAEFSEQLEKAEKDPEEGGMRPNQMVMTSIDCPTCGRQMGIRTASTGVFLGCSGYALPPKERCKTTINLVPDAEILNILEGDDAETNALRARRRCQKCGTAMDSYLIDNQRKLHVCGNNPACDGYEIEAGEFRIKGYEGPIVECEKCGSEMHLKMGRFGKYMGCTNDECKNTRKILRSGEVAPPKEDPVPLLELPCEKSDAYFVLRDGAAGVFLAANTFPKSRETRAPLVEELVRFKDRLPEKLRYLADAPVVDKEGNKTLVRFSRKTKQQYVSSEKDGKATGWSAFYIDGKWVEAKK
Experiment [1] is described as follows: ADAM10 inhibitors, peptide cleavage, dose response, biochemical, QFRET (AID 743254).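 Also: ADAM10 enzyme with the DM2 quenched FRET peptide as substrate; EDANS fluorescence gain as the protease cuts the substrate; inhibitor potency against ADAM10 proteolytic activity.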
The target in experiment [2] is Disintegrin and metalloproteinase domain-containing protein 17 (Homo sapiens, UniProt P78536). The experiment is described as follows: ADAM17 protease inhibitors, dose response, counter-screen for ADAM10 exosite inhibitor project, biochemical, quenched FRET substrate (AID 743253). In general terms: The purpose of a counterscreen is to sort out artefacts and off-target activity.
Disintegrin and metalloproteinase domain-containing protein 17, sequence (P78536 whole entry, the tested form may be a part): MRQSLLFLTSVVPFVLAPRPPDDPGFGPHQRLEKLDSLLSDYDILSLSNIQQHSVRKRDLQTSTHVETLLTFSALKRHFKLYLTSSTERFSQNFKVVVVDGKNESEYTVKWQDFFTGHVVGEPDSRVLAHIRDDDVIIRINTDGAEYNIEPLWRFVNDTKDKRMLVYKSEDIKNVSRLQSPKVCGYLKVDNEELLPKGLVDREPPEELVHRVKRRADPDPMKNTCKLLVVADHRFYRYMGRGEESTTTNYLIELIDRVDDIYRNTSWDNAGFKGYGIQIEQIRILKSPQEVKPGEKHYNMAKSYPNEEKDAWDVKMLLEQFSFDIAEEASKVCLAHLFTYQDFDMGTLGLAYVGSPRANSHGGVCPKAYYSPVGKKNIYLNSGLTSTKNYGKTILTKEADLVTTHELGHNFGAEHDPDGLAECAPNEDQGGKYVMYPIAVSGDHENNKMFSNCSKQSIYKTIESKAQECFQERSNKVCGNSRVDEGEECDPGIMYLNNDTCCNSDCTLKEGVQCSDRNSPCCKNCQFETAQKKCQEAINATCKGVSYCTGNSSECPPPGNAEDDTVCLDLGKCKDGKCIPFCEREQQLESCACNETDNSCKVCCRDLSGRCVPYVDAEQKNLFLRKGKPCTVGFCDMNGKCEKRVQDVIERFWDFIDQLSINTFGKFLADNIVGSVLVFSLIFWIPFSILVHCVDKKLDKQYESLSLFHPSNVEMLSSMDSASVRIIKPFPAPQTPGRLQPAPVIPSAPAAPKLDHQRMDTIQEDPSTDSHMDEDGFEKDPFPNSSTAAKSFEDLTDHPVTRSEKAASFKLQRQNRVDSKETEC

For a further experiment, the system named is Jurkat. The experiment is described as follows: SAR Analysis of small molecule inhibitors of […] specific antigen receptor-induced NF-kB activation in a Jurkat cell line using a luminescence assay - Set 3. [Related pubchem assays (depositor defined):AID435022, AID435025, AID465]. As to conditions: Homo sapiens. The experiment is classed as functional, cell-based.

Experiment [3] deals with HEK293. The experiment is described as follows: SAR Analysis of small molecule inhibitors of B-cell specific antigen receptor-induced NF-kB activation in a HEK-293T cell line using a luminescence assay - Set 2. [Related pubchem assays (depositor defined):AID435022, AID435025, AID489021]. The experiment is classed as functional, cell-based. As to conditions: Homo sapiens.

For experiment [4], the system named is HEK293. The experiment is described as follows: cytotoxicity in HEK293T NF-kB-Luc cells, SAR follow-up, cytotoxicity control for NF-kB activator project, cell-based, resazurin fluorescence (AID 493251). The experiment is classed as functional. Conditions: Homo sapiens. A general note: Alamar Blue is a resazurin reagent that responds to reducing activity.
Experiment [5] relates to HEK293. The experiment is described as follows: NOD1 signaling inhibitors, primary screen, cell-based, luminescence, uHTS (AID 1578). The experiment is classed as functional. As to conditions: Homo sapiens.
In experiment [6] the test system is HEK293. Nature of the experiment: cells. The experiment is classed as functional, cell-based. Conditions: Homo sapiens.
The target of experiment [7] is T3, Heat shock factor protein 1 (Mus musculus, UniProt P38532).
T3 sequence (P38532 whole entry): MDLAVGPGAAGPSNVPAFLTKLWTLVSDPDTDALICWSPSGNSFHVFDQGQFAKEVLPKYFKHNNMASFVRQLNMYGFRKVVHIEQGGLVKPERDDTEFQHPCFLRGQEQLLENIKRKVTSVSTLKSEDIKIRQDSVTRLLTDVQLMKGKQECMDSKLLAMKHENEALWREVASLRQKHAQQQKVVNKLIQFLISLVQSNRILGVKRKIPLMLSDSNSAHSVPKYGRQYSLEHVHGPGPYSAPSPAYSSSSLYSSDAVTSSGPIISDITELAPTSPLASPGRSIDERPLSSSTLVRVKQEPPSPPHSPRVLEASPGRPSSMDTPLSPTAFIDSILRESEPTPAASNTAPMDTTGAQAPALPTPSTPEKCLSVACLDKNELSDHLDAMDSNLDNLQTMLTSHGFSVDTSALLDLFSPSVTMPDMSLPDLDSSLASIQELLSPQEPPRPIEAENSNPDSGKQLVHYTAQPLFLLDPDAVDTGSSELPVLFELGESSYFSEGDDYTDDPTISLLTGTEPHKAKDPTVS
Nature of the experiment: inhibition of MG132-induced HSE-luciferase signal, confirmation, cell-based, NIH3T3, luminescence, dose retest (AID 2382).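 Also: NIH3T3 fibroblasts with HSF1-driven luciferase reporter stressed by proteasome inhibitor MG132; luminescence from HSF1-driven luciferase expression after 8 hours of MG132 stress.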 The experiment is classed as functional.

In experiment [8] the test system is HEK293. Nature of the experiment: cells. The experiment is classed as functional, cell-based. Conditions: Homo sapiens. This is another data set of the same source.
Experiment [9] has as its target Nucleotide-binding oligomerization domain-containing protein 2 (Homo sapiens, UniProt Q9HC29). Nature of the experiment: NOD2 signaling inhibitors, cell-based, luminescence, uHTS, HEK293 (AID 1566). The experiment is classed as functional.
The test system of experiment [10] is HEK293. The experiment is described as follows: NOD2 signaling inhibitors in MDP-stimulated cells, cell-based, uHTS, luminescence (AID 2001). The experiment is classed as functional. Conditions: Homo sapiens.
Experiment [11] has as its system HEK293. Nature of the experiment: cells. The experiment is classed as functional, cell-based. As to conditions: Homo sapiens. The source holds these as a separate data set.
The target in experiment [12] is Luciferin 4-monooxygenase (Photuris pensylvanica, UniProt Q27757). The experiment is described as follows: firefly luciferase enzyme inhibitors, dose response, counter-screen for HSF-1 reporter inhibitor project, biochemical, Cell Titer Glo, luminescence, cherry-picks (AID 588847).
Luciferin 4-monooxygenase, sequence (Q27757 whole entry): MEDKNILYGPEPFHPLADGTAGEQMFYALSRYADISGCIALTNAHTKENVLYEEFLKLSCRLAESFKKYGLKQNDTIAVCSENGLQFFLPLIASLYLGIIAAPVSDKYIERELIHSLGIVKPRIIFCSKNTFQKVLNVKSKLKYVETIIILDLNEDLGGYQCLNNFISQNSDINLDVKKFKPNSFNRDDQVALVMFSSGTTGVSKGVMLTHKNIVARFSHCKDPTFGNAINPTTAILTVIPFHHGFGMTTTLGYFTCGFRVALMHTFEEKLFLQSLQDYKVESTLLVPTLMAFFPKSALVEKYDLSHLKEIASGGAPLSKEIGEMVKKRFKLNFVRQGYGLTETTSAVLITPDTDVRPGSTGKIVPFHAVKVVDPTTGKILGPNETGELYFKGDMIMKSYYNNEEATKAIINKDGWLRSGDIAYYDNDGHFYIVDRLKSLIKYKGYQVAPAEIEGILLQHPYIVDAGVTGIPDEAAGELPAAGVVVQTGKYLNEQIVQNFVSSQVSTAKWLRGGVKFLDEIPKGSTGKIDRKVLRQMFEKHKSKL
Experiment [13] in a line: LGR2 antagonists, dose response, cell-based, HEK293, CRE-luciferase reporter, cherry pick, set 2 (AID 743343).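 Also: transfected cells were stimulated with diluted bursicon conditioned medium after compound addition.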 The experiment is classed as functional. (In general: Reporter assays use an easily measured gene product as a stand-in for the process of interest.)
Experiment [14] can be described thus: MC4R antagonists, dose response, counter-screen for LGR2 antagonist project, cell-based, plate reader, cherry pick (AID 743444).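 Also: transfected HEK 293 cells stimulated with alpha-MSH peptide; potency of inhibitors of the alpha-MSH evoked signal.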 The experiment is classed as functional.
The nature of experiment [15]: HEK293 cell cytotoxicity, dose response, cytotoxicity control, plate reader, cherry-picked samples (AID 743446). The experiment is classed as functional, cell-based.

Activity calls are given as the source filed them. A value given as a limit tells only on which side of the number the result lay.

Nucleotide-binding oligomerization domain-containing protein 2, sequence (Q9HC29 whole entry, the tested form may be a part): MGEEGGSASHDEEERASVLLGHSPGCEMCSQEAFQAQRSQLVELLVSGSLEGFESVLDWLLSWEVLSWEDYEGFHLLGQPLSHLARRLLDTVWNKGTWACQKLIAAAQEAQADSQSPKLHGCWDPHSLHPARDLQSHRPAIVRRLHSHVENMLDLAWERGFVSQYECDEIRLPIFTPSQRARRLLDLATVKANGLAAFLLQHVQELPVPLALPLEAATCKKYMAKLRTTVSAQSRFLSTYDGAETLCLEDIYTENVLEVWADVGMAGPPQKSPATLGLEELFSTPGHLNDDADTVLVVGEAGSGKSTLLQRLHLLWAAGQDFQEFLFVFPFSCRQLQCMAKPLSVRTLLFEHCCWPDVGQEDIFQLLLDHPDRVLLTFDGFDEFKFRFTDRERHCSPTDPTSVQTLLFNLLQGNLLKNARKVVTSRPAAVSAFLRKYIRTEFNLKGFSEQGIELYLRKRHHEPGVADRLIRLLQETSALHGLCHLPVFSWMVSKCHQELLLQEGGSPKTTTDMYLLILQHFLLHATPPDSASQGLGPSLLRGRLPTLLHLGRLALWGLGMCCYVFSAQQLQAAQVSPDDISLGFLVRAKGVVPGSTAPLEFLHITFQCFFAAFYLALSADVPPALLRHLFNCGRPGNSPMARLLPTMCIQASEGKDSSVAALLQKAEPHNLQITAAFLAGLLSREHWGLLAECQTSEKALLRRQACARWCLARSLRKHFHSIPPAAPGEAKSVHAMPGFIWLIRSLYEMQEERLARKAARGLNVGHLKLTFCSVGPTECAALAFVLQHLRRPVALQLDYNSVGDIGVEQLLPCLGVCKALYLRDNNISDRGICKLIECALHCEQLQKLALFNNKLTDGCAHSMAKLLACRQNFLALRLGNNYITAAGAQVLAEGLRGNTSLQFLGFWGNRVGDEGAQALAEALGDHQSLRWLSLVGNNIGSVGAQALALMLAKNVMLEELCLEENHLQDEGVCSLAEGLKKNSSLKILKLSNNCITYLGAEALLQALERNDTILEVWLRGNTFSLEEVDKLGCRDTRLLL

As for `O=c1c2ccccc2nc(/C=C/c2ccccn2)n1-c1ccccc1`, the IC50 on Hexokinase-1 and at Hexokinase HKDC1 was > 80 µM (inactive) each time.

As to `Cc1cc(C)c2c(=O)n3c(nc2c1)C(Cc1ccc(O)cc1)NC(=O)c1cc2ccccc2cc1-3` (centres undefined), the AC50 on DNA topoisomerase was 9.07 µM (active). Further, the IC50 in experiment [1] and in experiment [2] was > 69.5 µM (inactive) throughout.

As for `COc1cccc(NC(=O)CCc2nc(-c3ccc(C(C)(C)C)cc3)no2)c1`, the IC50 was 0.242 µM (active) in the experiment with Jurkat, 0.24 µM (active) in the experiment on HEK293 [3] and > 80 µM (inactive) in the experiment with HEK293 [4].

For the compound `Cc1cccc(-n2ncc3c(N(C)C4CCCCC4)ncnc32)c1`, the EC50 with HEK293 [5] was 9.93 µM (active); in [7], < 0.16 µM (active); in [9], < 0.31 µM (inactive). The IC50 with HEK293 [6] is 0.783 µM (active); in the experiment with HEK293 [8], > 20 µM (inactive); in the experiment on HEK293 [10], 6.81 µM (active); in the experiment with HEK293 [11], > 20 µM (inactive). Moreover, the AC50 was 6.99 µM (active) in [12], 0.121 µM (active) in [13], 0.0758 µM (active) in experiment [14] and 40.2 µM (active) in experiment [15].

The IC50 is the concentration at which inhibition is half-maximal. As usually defined, the AC50 is the midpoint of the concentration-response curve, whichever way the signal moves. For orientation: EC50 means the midpoint of the concentration-response curve.
